Measurements published in ChEMBL document CHEMBL1131354 (Bioorg Med Chem Lett, 1998).

molecular target: T1, Melatonin receptor type 1B (Gallus gallus, UniProt P51050); experiment: Binding affinity measured against Chicken brain melatonin receptor by using 2-[125I]iodomelatonin as radioligand
T1 sequence (P51050 whole entry): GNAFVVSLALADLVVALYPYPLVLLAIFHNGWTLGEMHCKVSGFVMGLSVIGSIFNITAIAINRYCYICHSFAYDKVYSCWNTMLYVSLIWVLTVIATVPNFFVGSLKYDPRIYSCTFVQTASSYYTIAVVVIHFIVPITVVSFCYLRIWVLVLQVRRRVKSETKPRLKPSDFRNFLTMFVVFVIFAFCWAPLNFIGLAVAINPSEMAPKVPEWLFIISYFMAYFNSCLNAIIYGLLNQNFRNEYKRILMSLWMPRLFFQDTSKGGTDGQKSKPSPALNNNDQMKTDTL

Compound	Ki [nM]
CCCC(=O)NCC1Cc2ccc(OC)cc21 (configuration not stated)	49
COc1cccc2c1CC(NC(C)=O)CC2 (configuration not stated)	161
CCCC(=O)NCC1CCCCc2ccc(OC)cc21 (configuration not stated)	1
CCCC(=O)NCC1CCc2ccc(OC)cc21 (configuration not stated)	7.6
COc1ccc2c(c1)C(CNC(C)=O)C2 (configuration not stated)	224
COc1ccc2c(c1)C(CNC(C)=O)CCCC2 (configuration not stated)	34
CCC(=O)NCC1Cc2ccc(OC)cc21 (configuration not stated)	40
COc1ccc2c(c1)C(CNC(C)=O)CC2 (configuration not stated)	77

Further lines, results first:

Ki [nM]	Compound
4	COc1ccc2c(c1)C(CNC(C)=O)CCC2 (configuration not stated)
29	CCC(=O)NCC1CCCCc2ccc(OC)cc21 (configuration not stated)
456	CCC(=O)NCC1CCc2ccc(OC)cc21 (single isomer, unassigned; (-))
0.45	CCC(=O)NCC1CCCc2ccc(OC)cc21 (single isomer, unassigned; (+))
3	CCC(=O)NCC1CCc2ccc(OC)cc21 (single isomer, unassigned; (+))
0.53	CCC(=O)NCC1CCCc2ccc(OC)cc21 (racemic)
> 1000	CCC(=O)NCC1CCCc2ccc(OC)cc21 (single isomer, unassigned; (-))
0.45	CCCC(=O)NCC1CCCc2ccc(OC)cc21 (configuration not stated)
16	CCC(=O)NCC1CCc2ccc(OC)cc21 (racemic)
